From PubChem BioAssay AID1259407 (Chemical Carcinogenesis Research Information System (CCRIS), 2018) come the findings set out here.

Molecules are shown by their SMILES. Activity calls are given as the source filed them. How the calls were made is not given here.

The data set relates to CCRIS mutagenicity, Ames/micronucleus/aberration tests. Nature of the data set: CCRIS mutagenicity studies.
The mark [1] stands for this setting: Test System: AMES SALMONELLA TYPHIMURIUM, Strain/Indicator: TA98, Metabolic Activation: NONE, Method: PREINCUBATION
[2] abbreviates: Test System: AMES SALMONELLA TYPHIMURIUM, Strain/Indicator: TA100, Metabolic Activation: NONE, Method: PREINCUBATION
The mark [3] stands for this setting: Test System: AMES SALMONELLA TYPHIMURIUM, Strain/Indicator: TA1535, Metabolic Activation: NONE, Method: PREINCUBATION
[4] abbreviates: Test System: AMES SALMONELLA TYPHIMURIUM, Strain/Indicator: TA1537, Metabolic Activation: NONE, Method: PREINCUBATION
The mark [5] stands for this setting: Test System: AMES SALMONELLA TYPHIMURIUM, Strain/Indicator: TA1538, Metabolic Activation: NONE, Method: PREINCUBATION
Where [6] appears, read: Test System: AMES SALMONELLA TYPHIMURIUM, Strain/Indicator: TA98, Metabolic Activation: NONE, Method: STANDARD PLATE.
Where [7] appears, read: Test System: AMES SALMONELLA TYPHIMURIUM, Strain/Indicator: TA100, Metabolic Activation: NONE, Method: STANDARD PLATE.
Setting [8] is: Test System: AMES SALMONELLA TYPHIMURIUM, Strain/Indicator: TA1535, Metabolic Activation: NONE, Method: STANDARD PLATE.

For `[O]=[W](=[O])([OH])[OH]`, the mutagenic call is “inactive; negative” under setting [1]; “inactive; negative” (Test System: AMES SALMONELLA TYPHIMURIUM, Strain/Indicator: TA98, Metabolic Activation: RAT LIVER S-9, PHENOBARBITAL AND BETA-NAPHTHOFLAVONE, Method: PREINCUBATION); “inactive; negative” under setting [2]; “inactive; negative” (Test System: AMES SALMONELLA TYPHIMURIUM, Strain/Indicator: TA100, Metabolic Activation: RAT LIVER S-9, PHENOBARBITAL AND BETA-NAPHTHOFLAVONE, Method: PREINCUBATION); “inactive; negative” under setting [3]; “inactive; negative” (Test System: AMES SALMONELLA TYPHIMURIUM, Strain/Indicator: TA1535, Metabolic Activation: RAT LIVER S-9, PHENOBARBITAL AND BETA-NAPHTHOFLAVONE, Method: PREINCUBATION). For the same molecule, the mutagenic call under setting [4] was “inactive; negative”; the mutagenic call (Test System: AMES SALMONELLA TYPHIMURIUM, Strain/Indicator: TA1537, Metabolic Activation: RAT LIVER S-9, PHENOBARBITAL AND BETA-NAPHTHOFLAVONE, Method: PREINCUBATION) was “inactive; negative”; the mutagenic call under setting [5] is “inactive; negative”; the mutagenic call (Test System: AMES SALMONELLA TYPHIMURIUM, Strain/Indicator: TA1538, Metabolic Activation: RAT LIVER S-9, PHENOBARBITAL AND BETA-NAPHTHOFLAVONE, Method: PREINCUBATION) is “inactive; negative”; the mutagenic call (Test System: E.COLI, Strain/Indicator: WP2UVRA, Metabolic Activation: NONE, Method: PREINCUBATION) was “inactive; negative”; the mutagenic call (Test System: E.COLI, Strain/Indicator: WP2UVRA, Metabolic Activation: RAT LIVER S-9, PHENOBARBITAL AND BETA-NAPHTHOFLAVONE, Method: PREINCUBATION) is “inactive; negative”.
Consider `Nc1cccc2c1C(=O)c1cccc(N)c1C2=O`, for which the mutagenic call was “inactive; negative” under setting [6]; “active; positive” (Test System: AMES SALMONELLA TYPHIMURIUM, Strain/Indicator: TA98, Metabolic Activation: RAT, LIVER, S-9, AROCLOR 1254, Method: STANDARD PLATE); “inactive; negative” under setting [7]; “inactive; negative” (Test System: AMES SALMONELLA TYPHIMURIUM, Strain/Indicator: TA100, Metabolic Activation: RAT, LIVER, S-9, AROCLOR 1254, Method: STANDARD PLATE); “inactive; negative” under setting [8]; “inactive; negative” (Test System: AMES SALMONELLA TYPHIMURIUM, Strain/Indicator: TA1535, Metabolic Activation: RAT, LIVER, S-9, AROCLOR 1254, Method: STANDARD PLATE). Further, the mutagenic call was “inactive; negative” (Test System: AMES SALMONELLA TYPHIMURIUM, Strain/Indicator: TA1537, Metabolic Activation: NONE, Method: STANDARD PLATE); “inactive; negative” (Test System: AMES SALMONELLA TYPHIMURIUM, Strain/Indicator: TA1538, Metabolic Activation: NONE, Method: STANDARD PLATE); “active; positive” (Test System: AMES SALMONELLA TYPHIMURIUM, Strain/Indicator: TA1538, Metabolic Activation: RAT, LIVER, S-9, AROCLOR 1254, Method: STANDARD PLATE).
Consider `Nc1ccn([C@@H]2O[C@H](CO)[C@@H](O)[C@@H]2O)c(=O)n1`, for which the mutagenic call runs as follows: (Test System: AMES SALMONELLA TYPHIMURIUM, Strain/Indicator: TA98, Metabolic Activation: HAMSTER, LIVER, S-9, AROCLOR 1254 (10%), Method: PREINCUBATION) “inactive; negative”; under setting [1], “inactive; negative”; (Test System: AMES SALMONELLA TYPHIMURIUM, Strain/Indicator: TA98, Metabolic Activation: RAT, LIVER, S-9, AROCLOR 1254 (10%), Method: PREINCUBATION) “inactive; negative”; (Test System: AMES SALMONELLA TYPHIMURIUM, Strain/Indicator: TA100, Metabolic Activation: HAMSTER, LIVER, S-9, AROCLOR 1254 (10%), Method: PREINCUBATION) “inactive; negative”; under setting [2], “inactive; negative”; (Test System: AMES SALMONELLA TYPHIMURIUM, Strain/Indicator: TA100, Metabolic Activation: RAT, LIVER, S-9, AROCLOR 1254 (10%), Method: PREINCUBATION) “inactive; negative”. Besides, the mutagenic call is “inactive; negative” (Test System: AMES SALMONELLA TYPHIMURIUM, Strain/Indicator: TA1535, Metabolic Activation: HAMSTER, LIVER, S-9, AROCLOR 1254 (10%), Method: PREINCUBATION); “inactive; negative” under setting [3]; “inactive; negative” (Test System: AMES SALMONELLA TYPHIMURIUM, Strain/Indicator: TA1535, Metabolic Activation: RAT, LIVER, S-9, AROCLOR 1254 (10%), Method: PREINCUBATION); “inactive; negative” (Test System: AMES SALMONELLA TYPHIMURIUM, Strain/Indicator: TA1537, Metabolic Activation: HAMSTER, LIVER, S-9, AROCLOR 1254 (10%), Method: PREINCUBATION); “inactive; negative” under setting [4]; “inactive; negative” (Test System: AMES SALMONELLA TYPHIMURIUM, Strain/Indicator: TA1537, Metabolic Activation: RAT, LIVER, S-9, AROCLOR 1254 (10%), Method: PREINCUBATION).
Turning to `CSC(C)(C)C(=O)N[C@@H](CS)C(=O)O`, the mutagenic call runs as follows: under setting [1], “inactive; negative”; under setting [2], “inactive; negative”; under setting [3], “inactive; negative”; under setting [4], “inactive; negative”; under setting [5], “inactive; negative”; (Test System: E. COLI, Strain/Indicator: WP2, Metabolic Activation: NONE, Method: PREINCUBATION) “inactive; negative”. The mutagenic call (Test System: E. COLI, Strain/Indicator: WP2 UVRA, Metabolic Activation: NONE, Method: PREINCUBATION) is “inactive; negative”.
Turning to `COc1cc2c3c(c1OC)-c1cc4c(cc1C[C@@H]3N(C)CC2)OCO4`, the mutagenic call was “active; positive” (Test System: AMES SALMONELLA TYPHIMURIUM, Strain/Indicator: TA98, Metabolic Activation: RAT, LIVER, S-9, PHENOBARBITAL AND BETA-NAPHTHOFLAVONE, Method: PREINCUBATION) and “active; positive” (Test System: AMES SALMONELLA TYPHIMURIUM, Strain/Indicator: TA100, Metabolic Activation: RAT, LIVER, S-9, PHENOBARBITAL AND BETA-NAPHTHOFLAVONE, Method: PREINCUBATION).
Regarding `COP(=S)(OC)Oc1ccc(Sc2ccc(OP(=S)(OC)OC)cc2)cc1`, the mutagenic call is, setting by setting: (Test System: AMES SALMONELLA TYPHIMURIUM, Strain/Indicator: TA97, Metabolic Activation: NONE, Method: STANDARD PLATE) “inactive; negative”; (Test System: AMES SALMONELLA TYPHIMURIUM, Strain/Indicator: TA97, Metabolic Activation: S-9, Method: STANDARD PLATE) “inactive; negative”; under setting [6], “inactive; negative”; (Test System: AMES SALMONELLA TYPHIMURIUM, Strain/Indicator: TA98, Metabolic Activation: S-9, Method: STANDARD PLATE) “inactive; negative”; (Test System: AMES SALMONELLA TYPHIMURIUM, Strain/Indicator: TA98NR, Metabolic Activation: NONE, Method: STANDARD PLATE) “active; positive”; (Test System: AMES SALMONELLA TYPHIMURIUM, Strain/Indicator: TA98NR, Metabolic Activation: S-9, Method: STANDARD PLATE) “active; positive”. The mutagenic call by setting is: under setting [7], “inactive; negative”; (Test System: AMES SALMONELLA TYPHIMURIUM, Strain/Indicator: TA100, Metabolic Activation: S-9, Method: STANDARD PLATE) “inactive; negative”; (Test System: AMES SALMONELLA TYPHIMURIUM, Strain/Indicator: TA102, Metabolic Activation: NONE, Method: STANDARD PLATE) “inactive; negative”; (Test System: AMES SALMONELLA TYPHIMURIUM, Strain/Indicator: TA102, Metabolic Activation: S-9, Method: STANDARD PLATE) “inactive; negative”; under setting [8], “active; positive”; (Test System: AMES SALMONELLA TYPHIMURIUM, Strain/Indicator: TA1535, Metabolic Activation: S-9, Method: STANDARD PLATE) “active; positive”. Also, the mutagenic call (Test System: AMES SALMONELLA TYPHIMURIUM, Strain/Indicator: YG7104, Metabolic Activation: NONE, Method: STANDARD PLATE) was “active; positive”; the mutagenic call (Test System: AMES SALMONELLA TYPHIMURIUM, Strain/Indicator: YG7104, Metabolic Activation: S-9, Method: STANDARD PLATE) was “active; positive”; the mutagenic call (Test System: AMES SALMONELLA TYPHIMURIUM, Strain/Indicator: YG7108, Metabolic Activation: NONE, Method: STANDARD PLATE) was “inactive; negative”; the mutagenic call (Test System: AMES SALMONELLA TYPHIMURIUM, Strain/Indicator: YG7108, Metabolic Activation: S-9, Method: STANDARD PLATE) was “active; positive”.
